In the supplement of paper PMC11061612:

Key:
Test in all cases: combination Emax (second highest fraction inhibited in the dose matrix, 72 h); higher = more inhibition; extreme values may be limits of the assay
[1] = system: CAPAN-2 (Pancreatic Carcinoma)
Outline: (§1)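 After 24 hours at 37°C and 5% CO2 in 1536-well plates, cells in DMEM/F12 or RPMI plus 10% FBS received two-drug dose matrices for 72 hours. Viability came from CellTiter-Glo 2.0 luminescence and was scaled as inhibition, anchored at 0 by vehicle wells and at 1 by blank wells. Combination Emax is taken as the second-highest inhibition in the matrix, and Bliss excess as the observed combination effect less EA + EB − EA·EB, with EA and EB the single-agent effects.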

[2] = system: LN-405 (Glioblastoma)
Outline: as §1

[3] = system: JSC-1 (B-Cell Non-Hodgkin's Lymphoma)
Outline: as §1

[4] = system: BICR22 (Oral Cavity Carcinoma)
Outline: as §1

[5] = system: IGR-37 (Melanoma)
Outline: as §1

[6] = system: 8-MG-BA (Glioblastoma)
Outline: as §1

[7] = system: COR-L311 (Small Cell Lung Carcinoma)
Outline: as §1

[8] = system: MDST8 (Colorectal Carcinoma)
Outline: as §1

[9] = system: U-2-OS (Osteosarcoma)
Outline: as §1

[10] = system: A498 (Kidney Carcinoma)
Outline: as §1

[11] = system: PA-1 (Ovarian Carcinoma)
Outline: as §1

[12] = system: CCK-81 (Colorectal Carcinoma)
Outline: as §1

[13] = system: A549 (Lung Adenocarcinoma)
Outline: as §1

[14] = system: KARPAS-422 (B-Cell Non-Hodgkin's Lymphoma)
Outline: as §1

[15] = system: CAL-29 (Bladder Carcinoma)
Outline: as §1

[16] = system: TT2609-C02 (Thyroid Gland Carcinoma)
Outline: as §1

[17] = system: NCI-H1581 (Non-Small Cell Lung Carcinoma)
Outline: as §1

[18] = system: PANC-10-05 (Pancreatic Carcinoma)
Outline: as §1

[19] = system: Hs-445 (Non-Cancerous)
Outline: as §1

[20] = system: GI-ME-N (Neuroblastoma)
Outline: as §1

Row | SMILES | combination Emax [1] | combination Emax [2] | combination Emax [3] | combination Emax [4] | combination Emax [5] | combination Emax [6] | combination Emax [7] | combination Emax [8] | combination Emax [9] | combination Emax [10] | combination Emax [11] | combination Emax [12] | combination Emax [13] | combination Emax [14] | combination Emax [15] | combination Emax [16] | combination Emax [17] | combination Emax [18] | combination Emax [19] | combination Emax [20]
1 | COc1cccc2c1C(=O)c1c(O)c3c(c(O)c1C2=O)C[C@@](O)(C(=O)CO)C[C@@H]3O[C@H]1C[C@H](N)[C@H](O)[C@H](C)O1 [Doxorubicin] + Cc1cc2ncnn2cc1Nc1ncc2c(n1)n(C1CCOCC1)c(=O)n2C [AZD7648] (first compound max 1 µM, 7x7, partner max 10 µM) | 0.197 | 0.335 | 0.97 | 0.945 | 0.777 | 0.938 | 0.87 | 0.965 | 0.55 | 0.598 | 0.892 | 0.477 | 0.906 | 0.954 | 0.735 | 0.414 | 0.866 | 0.715 | 0.94 | 0.812
2 | COc1cc2ncnc(Nc3ccc(F)c(Cl)c3)c2cc1OCCCN1CCOCC1 [Gefitinib] + CC(C)n1c(=O)n(C)c2cnc3cc(F)c(-c4ccc(OCCCN5CCCCC5)nc4)cc3c21 [AZD1390] (first compound max 10 µM, 7x7, partner max 0.3 µM) | 0.148 | 0.104 | 0.249 | 0.272 | 0.252 | 0.268 | 0.0812 | 0.0181 | 0.0294 | 0.298 | 0.351 | 0.661 | 0.435 | 0.128 | 0.228 | 0.0663 | 0.0926 | 0.202 | 0.369 | 0.0541
3 | CS(=O)(=O)CCNCc1ccc(-c2ccc3ncnc(Nc4ccc(OCc5cccc(F)c5)c(Cl)c4)c3c2)o1 [Lapatinib] + C[C@@H](Oc1cc(-c2cnn(C3CCNCC3)c2)cnc1N)c1c(Cl)ccc(F)c1Cl [Crizotinib] (first compound max 10 µM, 7x7, partner max 10 µM) | 0.741 | 0.493 | 0.925 | 0.933 | 0.906 | 0.998 | 0.924 | 0.738 | 0.486 | 0.926 | 1 | 0.975 | 0.988 | 0.96 | 0.952 | 0.476 | 0.678 | 0.675 | 0.783 | 0.392
4 | CC(=O)c1c(C)c2cnc(Nc3ccc(N4CCNCC4)cn3)nc2n(C2CCCC2)c1=O [Palbociclib] + CC1(C)CCC(CN2CCN(c3ccc(C(=O)NS(=O)(=O)c4ccc(NCC5CCOCC5)c([N+](=O)[O-])c4)c(Oc4cnc5[nH]ccc5c4)c3)CC2)=C(c2ccc(Cl)cc2)C1 [Venetoclax] (first compound max 10 µM, 7x7, partner max 1 µM) | 0.0393 | 0.17 | 0.506 | 0.209 | 0.215 | 0.366 | 0.632 | 0.238 | 0.142 | 0.318 | 0.779 | 0.106 | 0.64 | 0.964 | 0.0999 | 0.275 | 0.291 | 0.275 | 0.746 | 0.196
5 | CC(=O)c1c(C)c2cnc(Nc3ccc(N4CCNCC4)cn3)nc2n(C2CCCC2)c1=O [Palbociclib] + Cc1c2c(nn1C)CSCc1cc(n(C)n1)CSc1cc(c3ccccc3c1)OCCCc1c(C(=O)O)n(C)c3c-2c(Cl)ccc13 [AZD5991] (first compound max 10 µM, 7x7, partner max 1 µM) | 0.139 | 0.208 | 1 | 0.176 | 0.325 | 0.63 | 0.534 | 0.223 | 0.274 | 0.406 | 0.872 | 0.941 | 0.64 | 0.966 | 0.175 | 0.275 | 0.951 | 0.329 | 0.337 | 0.332
6 | CC(=O)c1c(C)c2cnc(Nc3ccc(N4CCNCC4)cn3)nc2n(C2CCCC2)c1=O [Palbociclib] + Cn1cnc2c(F)c(Nc3ccc(Br)cc3Cl)c(C(=O)NOCCO)cc21 [Selumetinib] (first compound max 10 µM, 7x7, partner max 10 µM) | 0.356 | 0.103 | 0.633 | 0.477 | 0.872 | 0.321 | 0.231 | 0.671 | 0.601 | 0.372 | 0.827 | 0.477 | 0.764 | 0.81 | 0.301 | 0.527 | 0.536 | 0.521 | 0.262 | 0.245
7 | COc1cccc(OCCCN)c1-c1cc(Nc2cnc(C#N)cn2)n[nH]1 [Prexasertib] + C=CCn1c(=O)c2cnc(Nc3ccc(N4CCN(C)CC4)cc3)nc2n1-c1cccc(C(C)(C)O)n1 [AZD1775] (first compound max 1 µM, partner max 1 µM) | 0.569 | 0.587 | 0.998 | 0.813 | 0.879 | 0.977 | 0.861 | 0.954 | 0.934 | 0.598 | 0.851 | 0.945 | 0.776 | 0.985 | 0.876 | 0.449 | 0.75 | 0.595 | 0.947 | 0.513
8 | COc1cccc(OCCCN)c1-c1cc(Nc2cnc(C#N)cn2)n[nH]1 [Prexasertib] + CCc1c2c(nc3ccc(O)cc13)-c1cc3c(c(=O)n1C2)COC(=O)[C@]3(O)CC [SN-38] (first compound max 1 µM, 7x7, partner max 0.3 µM) | 0.495 | 0.669 | 0.987 | 0.936 | 0.942 | 0.989 | 1 | 0.94 | 0.871 | 0.733 | 0.91 | 0.835 | 0.796 | 1 | 0.98 | 0.95 | 0.897 | 0.829 | 1 | 0.529
9 | COc1cccc(OCCCN)c1-c1cc(Nc2cnc(C#N)cn2)n[nH]1 [Prexasertib] + CN(C)CCCOc1ccc(-c2ccc3ncc4c(c3c2)n(C2CCOCC2)c(=O)n4C)cn1 [AZD0156] (first compound max 1 µM, 7x7, partner max 1 µM) | 0.592 | 0.516 | 1 | 0.742 | 0.912 | 0.934 | 0.77 | 0.957 | 0.943 | 0.725 | 0.725 | 0.927 | 0.536 | 0.904 | 0.836 | 0.335 | 0.284 | 0.4 | 0.97 | 0.529
10 | COc1cccc(OCCCN)c1-c1cc(Nc2cnc(C#N)cn2)n[nH]1 [Prexasertib] + C[C@@H]1COCCN1C2=NC(=NC(=C2)C3(CC3)[S@](=N)(=O)C)C4=C5C=CNC5=NC=C4 [AZD6738] (first compound max 1 µM, 7x7, partner max 10 µM) | 0.513 | 0.553 | 0.995 | 0.789 | 0.896 | 0.926 | 0.771 | 0.943 | 0.894 | 0.692 | 0.778 | 0.929 | 0.864 | 0.88 | 0.839 | 0.263 | 0.566 | 0.46 | 0.951 | 0.563
11 | COc1cccc(OCCCN)c1-c1cc(Nc2cnc(C#N)cn2)n[nH]1 [Prexasertib] + Cc1cc2ncnn2cc1Nc1ncc2c(n1)n(C1CCOCC1)c(=O)n2C [AZD7648] (first compound max 1 µM, 7x7, partner max 10 µM) | 0.593 | 0.445 | 1 | 0.761 | 0.923 | 0.951 | 0.789 | 0.943 | 0.913 | 0.642 | 0.734 | 0.903 | 0.63 | 0.908 | 0.79 | 0.276 | 0.418 | 0.522 | 0.954 | 0.563
12 | COc1cccc(OCCCN)c1-c1cc(Nc2cnc(C#N)cn2)n[nH]1 [Prexasertib] + O=C(c1cc(Cc2n[nH]c(=O)c3ccccc23)ccc1F)N1CCN(C(=O)C2CC2)CC1 [Olaparib] (first compound max 1 µM, 7x7, partner max 10 µM) | 0.337 | 0.592 | 0.996 | 0.78 | 0.961 | 0.969 | 0.803 | 0.937 | 0.908 | 0.591 | 0.706 | 0.841 | 0.614 | 0.92 | 0.714 | 0.329 | 0.563 | 0.31 | 0.949 | 0.452
13 | COc1cc2c(cc1OCCCCCOc1cc3c(cc1OC)C(=O)N1C=C(C)C[C@H]1C=N3)N=C[C@@H]1CC(C)=CN1C2=O [SG3199] + O=C(c1cc(Cc2n[nH]c(=O)c3ccccc23)ccc1F)N1CCN(C(=O)C2CC2)CC1 [Olaparib] (first compound max 0.001 µM, 7x7, partner max 10 µM) | 0.0949 | 0.301 | 0.116 | 0.124 | 0.0632 | 0.267 | 0.515 | 0.138 | 0.0914 | 0.173 | 0.324 | 0.184 | 0.234 | 0.258 | 0.0858 | 0.166 | 0.136 | 0.116 | 0.086 | 0.161
